# Data reported in article PMC3446843 (Toxicological Sciences, 2012).
# System: isolated mouse liver mitochondria
# Experiment: Loss of mitochondrial transmembrane potential
# Assay type: biochemical
# Details: 20% of maximal loss of ΔΨm (50µM mClCCP = 100%), 30-min incubation
row,SMILES,ΔΨm loss EC20 [µM]
1,O=C(O)c1ccccc1O [Salicylic acid],304.3
2,CCCCC1C(=O)N(c2ccccc2)N(c2ccccc2)C1=O [Phenylbutazone],140.2
3,NC12CC3CC(CC(C3)C1)C2 [Amantadine],261.2
4,CC[C@H]1OC(=O)[C@H](C)[C@@H](O[C@H]2C[C@@](C)(OC)[C@@H](O)[C@H](C)O2)[C@H](C)[C@@H](O[C@@H]2O[C@H](C)C[C@H](N(C)C)[C@H]2O)[C@](C)(O)C[C@@H](C)C(=O)[C@H](C)[C@@H](O)[C@]1(C)O [Erythromycin],> 400
5,CCOC(=O)c1ccc(O)cc1 [Ethyl paraben],297.5
6,CCOC(=O)CN[C@@H](C(=O)N1CC[C@H]1C(=O)NCc1ccc(/C(N)=N\O)cc1)C1CCCCC1 [Ximelagatran],535.7
7,CO[C@@]12[C@H](COC(N)=O)C3=C(C(=O)C(C)=C(N)C3=O)N1C[C@@H]1N[C@@H]12 [Mitomycin C],> 200
8,CNC(C)C1CCC(N)C(OC2C(N)CC(N)C(OC3OCC(C)(O)C(NC)C3O)C2O)O1 (stereo not shown) [Gentamicin],49.0
9,Cc1cc(=O)n(-c2ccccc2)n1C [Antipyrine],300.0
10,CCCN(CCC)C(=O)Cc1c(-c2ccc(Cl)cc2)nc2ccc(Cl)cn12 [Alpidem],83.7
11,CCCCc1oc2ccccc2c1C(=O)c1cc(I)c(OCCN(CC)CC)c(I)c1 [Amiodarone],2.6
12,CO[C@]12C[C@@H](COC(=O)c3cncc(Br)c3)CN(C)[C@@H]1Cc1cn(C)c3cccc2c13 [Nicergoline],82.6
13,CC(C)c1c(C(=O)Nc2ccccc2)c(-c2ccccc2)c(-c2ccc(F)cc2)n1CC[C@@H](O)C[C@@H](O)CC(=O)O [Atorvastatin],4.3
14,Cc1nc(Nc2ncc(C(=O)Nc3c(C)cccc3Cl)s2)cc(N2CCN(CCO)CC2)n1 [Dasatinib],20.8
15,Clc1ccc(COC(Cn2ccnc2)c2ccc(Cl)cc2Cl)cc1 (stereo not shown) [Econazole],13.3
16,NNC(=O)c1ccncc1 [Isoniazide],504.6
17,Cc1cc2c(C(C)C)c(O)c(O)c(C=O)c2c(O)c1-c1c(C)cc2c(C(C)C)c(O)c(O)c(C=O)c2c1O [Gossypol],1.0
18,CS(=O)(=O)Nc1ccc([N+](=O)[O-])cc1Oc1ccccc1 [Nimesulide],10.1
19,COc1cccc(C2(O)CCCCC2CN(C)C)c1 (stereo not shown) [Tramadol],263.8
20,CS(=O)(=O)OCCCCOS(C)(=O)=O [Busulfan],483.1

row,SMILES,ΔΨm loss EC20 [µM]
1,Oc1ccc(/C=C/c2cc(O)cc(O)c2)cc1 [Resveratrol],395.4
2,CC1(C)S[C@@H]2[C@H](NC(=O)[C@H](N)c3ccc(O)cc3)C(=O)N2[C@H]1C(=O)O [Amoxicillin],> 400
3,O=C(O)c1cn(C2CC2)c2cc(N3CCNCC3)c(F)cc2c1=O [Ciprofloxacin],> 400
4,CC(C)c1nc(CN(C)C(=O)N[C@H](C(=O)N[C@@H](Cc2ccccc2)C[C@H](O)[C@H](Cc2ccccc2)NC(=O)OCc2cncs2)C(C)C)cs1 [Ritonavir],24.8
5,CC[C@H](C)C(=O)O[C@H]1C[C@H](O)C=C2C=C[C@H](C)[C@H](CC[C@@H](O)C[C@@H](O)CC(=O)O)[C@H]21 [Pravastatin],> 200
6,Sc1ncnc2nc[nH]c12 [Mercaptopurine],406.9
7,COc1ccc2c(c1)c(CC(=O)O)c(C)n2C(=O)c1ccc(Cl)cc1 [Indomethacin],443.2
8,CCN(CC)C(=S)SSC(=S)N(CC)CC [Disulfiram],12.6
9,COc1cccc2c1C(=O)c1c(O)c3c(c(O)c1C2=O)C[C@@](O)(C(=O)CO)C[C@@H]3O[C@H]1C[C@H](N)[C@H](O)[C@H](C)O1 [Doxorubicin],8.9
10,Cc1ccc(C(=O)c2cc(O)c(O)c([N+](=O)[O-])c2)cc1 [Tolcapone],3.9
11,CC1=NS(=O)(=O)c2cc(Cl)ccc2N1 [Diazoxide],> 200
12,O=c1ccc2ccccc2o1 [Coumarin],0.9
13,CC(C)C(=O)Nc1ccc([N+](=O)[O-])c(C(F)(F)F)c1 [Flutamide],27.0
14,CCN(CC)CCNC(=O)c1c(C)[nH]c(/C=C2\C(=O)Nc3ccc(F)cc32)c1C [Sunitinib],23.2
15,CO[C@H]1/C=C/O[C@@]2(C)Oc3c(C)c(O)c4c(O)c(c(/C=N/N5CCN(C)CC5)c(O)c4c3C2=O)NC(=O)/C(C)=C\C=C\[C@H](C)[C@H](O)[C@@H](C)[C@@H](O)[C@@H](C)[C@H](OC(C)=O)[C@@H]1C [Rifampicin],> 800
16,Cc1cn(-c2cc(NC(=O)c3ccc(C)c(Nc4nccc(-c5cccnc5)n4)c3)cc(C(F)(F)F)c2)cn1 [Nilotinib],11.5
17,CCCc1cc(=O)[nH]c(=S)[nH]1 [Propylthiouracil],391.5
18,Cc1c(O)cccc1C(=O)N[C@@H](CSc1ccccc1)[C@H](O)CN1C[C@H]2CCCC[C@H]2C[C@H]1C(=O)NC(C)(C)C [Nelfinavir],6.3
19,CC(C)=CCC[C@]1(C)[C@@H](CC=C(C)C)C[C@@]2(CC=C(C)C)C(=O)[C@]1(C(=O)C(C)C)C(=O)C(CC=C(C)C)=C2O [Hyperforin],0.1
20,Clc1ccccc1C(c1ccccc1)(c1ccccc1)n1ccnc1 [Clotrimazole],23.9

row,SMILES,ΔΨm loss EC20 [µM]
1,CC[C@H]1OC(=O)[C@H](C)[C@@H](O[C@H]2C[C@@](C)(OC)[C@@H](O)[C@H](C)O2)[C@H](C)[C@@H](O[C@@H]2O[C@H](C)C[C@H](N(C)C)[C@H]2O)[C@](C)(O)C[C@@H](C)/C(=N\OCOCCOC)[C@H](C)[C@@H](O)[C@]1(C)O [Roxithromycin],244.8
2,COc1cc2ncnc(Nc3ccc(F)c(Cl)c3)c2cc1OCCCN1CCOCC1 [Gefitinib],9.6
3,O=C(O)c1nn(Cc2ccc(Cl)cc2Cl)c2ccccc12 [Lonidamine],138.1
4,Cc1cccc(Nc2ccccc2C(=O)O)c1C [Mefenamic acid],49.7
5,Cc1c(Cl)cccc1Nc1ccccc1C(=O)O [Tolfenamic acid],7.1
6,O=c1c(-c2ccc(O)cc2)coc2cc(O)cc(O)c12 [Genistein],150.6
7,CCC1=C(C)CN(C(=O)NCCc2ccc(S(=O)(=O)NC(=O)N[C@H]3CC[C@H](C)CC3)cc2)C1=O [Glimepiride],94.6
8,Cc1ccc(NC(=O)c2ccc(CN3CCN(C)CC3)cc2)cc1Nc1nccc(-c2cccnc2)n1 [Imatinib],25.7
9,O=C(/C=C/c1ccc(O)c(O)c1)c1ccc(O)cc1O [Butein],> 200
10,CNC(=O)c1cc(Oc2ccc(NC(=O)Nc3ccc(Cl)c(C(F)(F)F)c3)cc2)ccn1 [Sorafenib],0.5
11,CN(C)CCCN1c2ccccc2CCc2ccccc21 [Imipramine],74.8
12,Clc1ccccc1CN1CCc2sccc2C1 [Ticlopidine],50.5
13,CC[C@]1(O)C[C@@H]2CN(CCc3c([nH]c4ccccc34)[C@@](C(=O)OC)(c3cc4c(cc3OC)N(C)[C@H]3[C@@](O)(C(=O)OC)[C@H](OC(C)=O)[C@]5(CC)C=CCN6CC[C@]43[C@@H]65)C2)C1 [Vinblastine],25.7
14,CN(C/C=C/C#CC(C)(C)C)Cc1cccc2ccccc12 [Terbinafine],12.5
15,O=C1c2c(O)ccc(O)c2C(=O)c2c(NCCNCCO)ccc(NCCNCCO)c21 [Mitoxantrone],7.00
16,O=C(O)c1cc(-c2ccc(F)cc2F)ccc1O [Diflunisal],17.9
17,[H]/N=C(/N)N[C@H]1[C@H](O)[C@@H](O)[C@H](O[C@@H]2O[C@@H](C)[C@](O)(C=O)[C@H]2O[C@@H]2O[C@@H](CO)[C@H](O)[C@@H](O)[C@@H]2NC)[C@@H](N/C(N)=N\[H])[C@@H]1O [Streptomycin],78.8
18,O=C(O)c1ccccc1Nc1cccc(C(F)(F)F)c1 [Flufenamic acid],42.5
19,CC/C(=C(\c1ccccc1)c1ccc(OCCN(C)C)cc1)c1ccccc1 [Tamoxifen],2.9
20,CC1(C)S[C@@H]2[C@H](NC(=O)[C@H](N)c3ccccc3)C(=O)N2[C@H]1C(=O)O [Ampicillin],> 400

# Same assay, conditions: ΔΨm and respiration
row,SMILES,concentrations collapsing the ΔΨm and altering the mitochondrial respiration
1,CC(C)c1nc(CN(C)C(=O)N[C@H](C(=O)N[C@@H](Cc2ccccc2)C[C@H](O)[C@H](Cc2ccccc2)NC(=O)OCc2cncs2)C(C)C)cs1 [Ritonavir],lower than 50 μM
2,Cc1c(O)cccc1C(=O)N[C@@H](CSc1ccccc1)[C@H](O)CN1C[C@H]2CCCC[C@H]2C[C@H]1C(=O)NC(C)(C)C [Nelfinavir],lower than 50 μM

# System: isolated mouse liver mitochondria, complex I
# Experiment: Oxygen consumption through complex I
# Details: inhibition of oxygen consumption, malate + glutamate + ADP; 2µM rotenone = 100%
row,SMILES,O2 cons CI EC20 [µM]
1,O=C(O)c1ccccc1O [Salicylic acid],120.9
2,NC12CC3CC(CC(C3)C1)C2 [Amantadine],> 400
3,CC[C@H]1OC(=O)[C@H](C)[C@@H](O[C@H]2C[C@@](C)(OC)[C@@H](O)[C@H](C)O2)[C@H](C)[C@@H](O[C@@H]2O[C@H](C)C[C@H](N(C)C)[C@H]2O)[C@](C)(O)C[C@@H](C)C(=O)[C@H](C)[C@@H](O)[C@]1(C)O [Erythromycin],27.9
4,CCOC(=O)c1ccc(O)cc1 [Ethyl paraben],47.8
5,Cc1cc(=O)n(-c2ccccc2)n1C [Antipyrine],> 400
6,CCCN(CCC)C(=O)Cc1c(-c2ccc(Cl)cc2)nc2ccc(Cl)cn12 [Alpidem],29.6
7,COc1cccc2c1C(=O)c1c(O)c3c(c(O)c1C2=O)C[C@@](O)(C(C)=O)C[C@@H]3O[C@H]1C[C@H](N)[C@H](O)[C@H](C)O1 [Daunorubicin],10.9
8,Cc1cc2nc3c(=O)[nH]c(=O)nc-3n(C[C@H](O)[C@H](O)[C@H](O)CO)c2cc1C [Riboflavin],182.8
